Values quoted from earlier work, collected in Sander's compilation of Henry's law constants (doi:10.1080/01483918608076621).

Experiment: Henry solubility constant Hcp at 298.15 K (mol/(m3 Pa))
Conditions: reference: Janini and Quaddora (1986); cited value

| SMILES | Henry solubility constant Hcp |
| --- | --- |
| Cc1ccccc1O [1-hydroxy-2-methylbenzene] | 2.6 |
| Cc1cccc(O)c1 [1-hydroxy-3-methylbenzene] | 6.1 |
| Cc1ccc(O)cc1 [1-hydroxy-4-methylbenzene] | 5.2 |
| CCCCCC(C)=O [2-heptanone] | 0.35 |
| CCCC(C)=O [2-pentanone] | 0.091 |
| CCCCOC(C)=O [butyl ethanoate] | 0.035 |
| CC(C)=O [propanone] | 0.03 |

Further lines, results first:

| Henry solubility constant Hcp | SMILES |
| --- | --- |
| 0.029 | CC(=O)OC(C)C [2-propyl ethanoate] |
| 0.2 | CCC(=O)CC [3-pentanone] |
| 0.054 | CCCC=O [butanal] |
| 0.047 | CCOC(C)=O [ethyl ethanoate] |
| 0.044 | CCCOC(C)=O [propyl ethanoate] |
